Measured values as given in PubChem BioAssay AID1845206 (Molecular Pharmacology Branch, DTP, NCI, 2023).

Test system: NCI-H1618 multicellular tumor spheroid viability
Test: Anticancer human tumor NCI-H1618 cell line growth inhibition;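 further: spheroids exposed to agents for 7 days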
Settings: for IC50: curve of first compound; for viability, T/C: stronger effect = lower value
Excerpt: Multicellular complex tumor spheroid response to DNA repair inhibitors in combination with DNA-damaging drugs
This study explores the anticancer activities of DNA-damaging drugs and inhibitors of DNA damage repair, both as single agents and in combinations. Complex tumor spheroids comprised of malignant cells, endothelial cells and mesenchymal stem cells served as an in vitro model for human solid tumors. This model system incorporates physiologically relevant features and patient-derived or established malignant cell lines with clinically relevant genetic alterations from many tumor types. Twenty-six patient-derived or established malignant cell lines were evaluated representing sarcoma, melanoma, small cell lung cancer (SCLC), non-small cell lung cancer (NSCLC), as well as bladder, ovarian and pancreatic cancers. The concentration ranges selected for each drug and investigational agent were based upon clinically achievable concentrations if the clinical Cmax of the agent was known.
Compounds. The drugs and compounds olaparib (NSC753686), talazoparib (NSC767125), berzosertib (NSC777718), elimusertib (NSC800525), nedisertib (NSC802822), VX-984 (NSC792969), AZD-1390 (NSC803789), temozolomide (NSC362856), topotecan (NSC609699), trabectedin (NSC813783), staurosporine (NSC755774), and gemcitabine (NSC613327) were obtained from the National Cancer Institute (NCI) Developmental Therapeutics Program Chemical Repository. The FDA-approved anticancer drug set is available from the Developmental Therapeutics Program at https://dtp.cancer.gov/organization/dscb/obtaining/available_plates.htm. […] The stock solutions were prepared in dimethyl sulfoxide (DMSO, Sigma-Aldrich, St. Louis, MO, cat. D2650) at 400-fold the tested concentration and stored at -70 degrees C. Prior to their use, the stock solutions were diluted in fresh medium and the final DMSO concentration in the assay was 0.25% (v/v). All drugs and investigational agents were tested over a range starting from a high concentration at or near the clinical Cmax and decreasing in half-log increments. If the clinical Cmax for an agent had not been determined, the highest concentration tested was 10 microM.
Cell Lines. The patient-derived cancer cell (PDC) lines: 156681-154-R-J1-PDC, 283228-195-R-J1-PDC, 287954-098-R-J1-PDC, 292921-168-R-J2-PDC, 349418-098-R-PDC, 425362-245-T-J1-PDC, 556581-035-R-J1-PDC, and BL0293-F563-PDC were received from the NCI Patient-Derived Models Repository (PDMR, https://pdmr.cancer.gov). The established cell lines HS-SY-2 (RRID:CVCL_8719), MPNST, and SYO-1 (RRID:CVCL_7146) were obtained from the Sloan Kettering Institute. The alveolar soft parts sarcoma cell line ASPS-1 (RRID:CVCL_S738) was established at the NCI and grown from internal seed stocks. The following established cell lines were purchased from the American Type Culture Collection (ATCC, Manassas, VA): G-401 (ATCC, cat. CRL-1441, RRID:CVCL_0270), SW982 (ATCC, cat. HTB-93, RRID:CVCL_1734), VA-ES-BJ (ATCC, cat. CRL-2138, RRID:CVCL_1785), NCI-H719 (ATCC, cat. CRL-5837, RRID:CVCL_1582), NCI-H196 (ATCC, cat. CRL-5823, RRID:CVCL_1509), NCI-H841 (ATCC, cat. CRL-5845, RRID:CVCL_1595), NCI-H1618 (ATCC, cat. CRL-5879, RRID:CVCL_1480), NCI-H1876 (ATCC, cat. CRL-5902, RRID:CVCL_1503), DMS 114 (ATCC, cat. CRL-2066; RRID:CVCL_1174), NCI-H211 (ATCC, cat. CRL-5824; RRID:CVCL_1529), and SW 1271 (ATCC, cat. CRL-2177, RRID:CVCL_1716). The small cell lung cancer cell line COR-L88 was purchased from Sigma-Aldrich (cat. 92031917-1VL, RRID:CVCL_1141). The non-small cell lung cancer cell lines NCI-H226 (RRID:CVCL_1544) and NCI-H322M (RRID:CVCL_1557) were established at the NCI and grown from internal seed stocks. Pooled donor human umbilical vein endothelial cells (HUVEC, Lonza, cat. CC-2519) and human mesenchymal stem cells (hMSC, Lonza, cat. PT-2501) were purchased from Lonza (Walkersville, MD).
Cell Culture. All cells were maintained in an incubator at 37 degrees C and 5% CO2 with 95% humidity. […]

[1] = second compound 0.003 µM, first compound 0.0316 µM
[2] = second compound 0.003 µM, first compound 0.1 µM
[3] = second compound 0.003 µM, first compound 0.316 µM
[4] = second compound 0.003 µM, first compound 1 µM
[5] = second compound 0.003 µM, first compound 3.16 µM
[6] = second compound 0.003 µM, first compound 10 µM
[7] = second compound 0.00949 µM, first compound 0.0316 µM
[8] = second compound 0.00949 µM, first compound 0.1 µM
[9] = second compound 0.00949 µM, first compound 0.316 µM
[10] = second compound 0.00949 µM, first compound 1 µM
[11] = second compound 0.00949 µM, first compound 3.16 µM
[12] = second compound 0.00949 µM, first compound 10 µM
[13] = second compound 0.03 µM, first compound 0.0316 µM
[14] = second compound 0.03 µM, first compound 0.1 µM
[15] = second compound 0.03 µM, first compound 0.316 µM
[16] = second compound 0.03 µM, first compound 1 µM
[17] = second compound 0.03 µM, first compound 3.16 µM
[18] = second compound 0.03 µM, first compound 10 µM
[19] = second compound 0.0949 µM, first compound 0.0316 µM
[20] = second compound 0.0949 µM, first compound 0.1 µM
[21] = second compound 0.0949 µM, first compound 0.316 µM
[22] = second compound 0.0949 µM, first compound 1 µM
[23] = second compound 0.0949 µM, first compound 3.16 µM
[24] = second compound 0.0949 µM, first compound 10 µM
[25] = second compound 0.3 µM, first compound 0.0316 µM
[26] = second compound 0.3 µM, first compound 0.1 µM
[27] = second compound 0.3 µM, first compound 0.316 µM
[28] = second compound 0.3 µM, first compound 1 µM
[29] = second compound 0.3 µM, first compound 3.16 µM
[30] = second compound 0.3 µM, first compound 10 µM

Row | Structure (SMILES) | IC50 (second compound 0.003 µM) [nM] | IC50 (second compound 0.00949 µM) [nM] | IC50 (second compound 0.03 µM) [nM] | IC50 (second compound 0.0949 µM) [nM] | IC50 (second compound 0.3 µM) [nM] | viability, T/C [1] [%] | viability, T/C [2] [%] | viability, T/C [3] [%] | viability, T/C [4] [%] | viability, T/C [5] [%] | viability, T/C [6] [%] | viability, T/C [7] [%] | viability, T/C [8] [%] | viability, T/C [9] [%] | viability, T/C [10] [%] | viability, T/C [11] [%] | viability, T/C [12] [%] | viability, T/C [13] [%] | viability, T/C [14] [%] | viability, T/C [15] [%] | other results
1 | Cc1cc(C)c(CNC(=O)c2cc(-c3ccc(CN4CCOCC4)cc3)cc3c2cnn3C2CCCC2)c(=O)[nH]1 + CC[C@@]1(O)C(=O)OCc2c1cc1n(c2=O)Cc2cc3c(CN(C)C)c(O)ccc3nc2-1 | > 10000 | < 31.6 | < 31.6 | < 31.6 | < 31.6 | 90.8 | 94.2 | 94.5 | 88.5 | 83.1 | 76.2 | 58.5 | 38.5 | 51 | 27.2 | 17.3 | 12.7 | 1.8 | 1.58 | 1.81 | viability, T/C [16]: 1.82%; viability, T/C [17]: 1.84%; viability, T/C [18]: 18.6%; viability, T/C [19]: 1.32%; viability, T/C [20]: 1.44%; viability, T/C [21]: 1.43%; viability, T/C [22]: 2.27%; viability, T/C [23]: 1.46%; viability, T/C [24]: 2.04%; viability, T/C [25]: 19.2%; viability, T/C [26]: 1.25%; viability, T/C [27]: 1.16%; viability, T/C [28]: 1.34%; viability, T/C [29]: 1.57%; viability, T/C [30]: 19.7%
2 | [2H]c1nc(C)nc([2H])c1-c1cc(NC[C@@H](C)c2cccc3c(C(=O)NC)ccnc23)ncn1 + CC[C@@]1(O)C(=O)OCc2c1cc1n(c2=O)Cc2cc3c(CN(C)C)c(O)ccc3nc2-1 | < 31.6 | < 31.6 | < 31.6 | < 31.6 | < 31.6 | 43.8 | 7.02 | 138 | 158 | 108 | 57.3 | 23 | 4.37 | 42.7 | 109 | 70.8 | 29.9 | 12 | 7.3 | 15.2 | viability, T/C [16]: 21.4%; viability, T/C [17]: 22%; viability, T/C [18]: 26.6%; viability, T/C [19]: 11.4%; viability, T/C [20]: 10.8%; viability, T/C [21]: 3.24%; viability, T/C [22]: 24.5%; viability, T/C [23]: 22.6%; viability, T/C [24]: 21.6%; viability, T/C [25]: 9.96%; viability, T/C [26]: 5.33%; viability, T/C [27]: 2.69%; viability, T/C [28]: 14.1%; viability, T/C [29]: 16.1%; viability, T/C [30]: 4.13%
